Test results as given in ChEMBL document CHEMBL5244247, “Natural and synthetic coumarins as antileishmanial agents: A review” (Eur J Med Chem, 2020).
≈ marks a conversion by molar mass, not a printed value. Where “and” joins values, the source holds several entries; their conditions need not be identical. Identical values can stand only once.

Assays:
Leishmania major [1] = test: Antileishmanial activity against promastigote form of Leishmania major; format: functional, organism-based
Leishmania donovani [2] = test: Antileishmanial activity against promastigote form of Leishmania donovani; format: functional, organism-based
[3] = Selectivity index, ratio of IC50 for cytotoxicity against human THP-1 cells to IC50 for antileishmanial activity against axenic amastigote stage of Leishmania infantum infected in human THP-1 cells; format: toxicity, cell-based; conditions: read-out: Selectivity Index
THP-1 = test: Cytotoxicity against human THP-1 cells assessed as inhibition incubated for 24 hrs by flow cytometry assay; format: functional, cell-based; conditions: THP-1, 24 h
Leishmania infantum [4] = test: Antileishmanial activity against axenic amastigote stage of Leishmania infantum infected in human THP-1 cells assessed as inhibition of parasite growth incubated for 24 hrs by flow cytometry assay; format: functional, organism-based; conditions: THP-1, 24 h
Leishmania major [5] = test: Antileishmanial activity against promastigote form of Leishmania major assessed as inhibition of parasite growth by MTT colorimetric cell viability assay; format: functional, organism-based
Leishmania amazonensis [6] = test: Antileishmanial activity against promastigote form of Leishmania amazonensis assessed as parasite growth inhibition incubated for 72 hrs by neubauer counting chamber analysis; format: functional, organism-based
Leishmania amazonensis [7] = test: Antileishmanial activity against amastigote form of Leishmania amazonensis assessed as parasite growth inhibition; format: functional, organism-based
Leishmania braziliensis [8] = test: Antileishmanial activity against amastigote form of Leishmania braziliensis; format: functional
[9] = Selectivity index, ratio of CC50 for cytotoxicity against mouse J774G8 cells to IC50 for antileishmanial activity against intracellular Leishmania amazonensis MHOM/BR/75/Josefa amastigotes infected in BALB/c mouse peritoneal macrophages; format: toxicity, cell-based; conditions: read-out: Ratio CC50/IC50
Leishmania amazonensis [10] = test: Antileishmanial activity against intracellular Leishmania amazonensis MHOM/BR/75/Josefa amastigotes infected in BALB/c mouse peritoneal macrophages assessed as parasite growth inhibition incubated for 24 hrs by regression analysis; format: functional, organism-based; conditions: Peritoneal macrophage
Leishmania braziliensis [11] = test: Antileishmanial activity against promastigote form of Leishmania braziliensis; format: functional, organism-based; conditions: for IC50: Leishmania braziliensis
Leishmania amazonensis [12] = test: Antileishmanial activity against promastigote form of Leishmania amazonensis assessed as parasite growth inhibition incubated for 72 hrs by regression analysis; format: functional, organism-based
Leishmania amazonensis [13] = test: Antileishmanial activity against amastigote form of Leishmania amazonensis assessed as parasite growth inhibition incubated for 72 hrs by regression analysis; format: functional, organism-based
Leishmania donovani [14] = test: Antileishmanial activity against amastigote form of Leishmania donovani; format: functional, organism-based
Leishmania donovani [15] = test: Antileishmanial activity against amastigote form of Leishmania donovani at 50 uM assessed as inhibition of parasite growth relative to control; format: functional
Leishmania panamensis = test: Antileishmanial activity against intracellular Leishmania panamensis amastigotes infected in human U-937 cells assessed as inhibition at 20 ug/mL incubated for 72 hrs by flow cytometry relative to control; format: functional
Leishmania amazonensis [16] = test: Antileishmanial activity against promastigote form of Leishmania amazonensis; format: functional, organism-based
Leishmania infantum [17] = test: Antileishmanial activity against promastigote form of Leishmania infantum; format: functional, organism-based
Leishmania chagasi = test: Antileishmanial activity against promastigote form of Leishmania chagasi; format: functional, organism-based
Leishmania mexicana = test: Antileishmanial activity against promastigote form of Leishmania mexicana; format: functional, organism-based
Peritoneal macrophage = test: Cytotoxicity against mouse peritoneal macrophage; format: functional, cell-based
Leishmania infantum [18] = test: Antileishmanial activity against amastigote form of Leishmania infantum; format: functional, organism-based
[19] = target: Acetylcholinesterase (Homo sapiens) (UniProt P22303); test: Inhibition of AChE (unknown origin) assessed as inhibition zone by Ellman's colorimetric method
Leishmania amazonensis [20] = test: Antileishmanial activity against Leishmania amazonensis infected in BALB/c mouse assessed as reduction in parasite load at 10 mg/kg, sc administered for 14 days relative to control; format: functional; set-up: scale not given: the % may be the effect or the level left; conditions: time 14 day
Leishmania major [21] = test: Antileishmanial activity against promastigote form of Leishmania major assessed as inhibition of parasite growth by Litchfield-Wilcoxon method; format: functional, organism-based
Leishmania major [22] = test: Antileishmanial activity against promastigote form of Leishmania major assessed as inhibition incubated for 72 hrs by MTT assay; format: functional, organism-based
Leishmania major [23] = test: Antileishmanial activity against promastigote form of Leishmania major assessed as inhibition incubated for 48 hrs by MTT assay; format: functional, organism-based

Sequence of Acetylcholinesterase (Homo sapiens) (P22303 whole entry): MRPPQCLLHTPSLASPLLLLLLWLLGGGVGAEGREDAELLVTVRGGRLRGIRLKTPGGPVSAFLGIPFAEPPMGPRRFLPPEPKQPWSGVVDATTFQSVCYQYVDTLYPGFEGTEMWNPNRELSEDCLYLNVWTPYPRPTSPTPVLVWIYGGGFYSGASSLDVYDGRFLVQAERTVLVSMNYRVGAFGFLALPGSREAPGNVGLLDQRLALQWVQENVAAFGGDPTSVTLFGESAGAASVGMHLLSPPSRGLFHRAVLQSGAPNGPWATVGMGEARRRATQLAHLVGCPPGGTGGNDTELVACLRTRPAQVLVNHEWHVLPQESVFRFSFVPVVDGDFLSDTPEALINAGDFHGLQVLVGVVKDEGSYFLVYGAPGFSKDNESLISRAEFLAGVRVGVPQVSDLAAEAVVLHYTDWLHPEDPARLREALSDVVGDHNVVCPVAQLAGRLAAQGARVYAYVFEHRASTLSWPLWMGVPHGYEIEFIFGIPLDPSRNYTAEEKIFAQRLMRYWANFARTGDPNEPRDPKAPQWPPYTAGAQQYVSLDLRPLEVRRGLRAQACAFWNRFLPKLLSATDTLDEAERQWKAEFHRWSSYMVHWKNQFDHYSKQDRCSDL

Q: For `C=C1C=C[C@H]2C(C)(C)C(=O)CC[C@]2(C)[C@@H]1COc1ccc2ccc(=O)oc2c1`, which IC50 (Leishmania major [1]) is on record?
A: 43.8 µg/mL (≈ 116 µM)

Q: With `Cc1cccc2cc(C(c3c(O)c4ccccc4oc3=O)N3CCCCC3)c(Cl)nc12` (stereo not drawn) as the molecule, how does the IC50 (Leishmania donovani [2]) read?
A: 9.9 µM

Q: Which selectivity ratio [3] does the source give for `COc1cc2oc(=O)cc(C[Se]C#N)c2cc1OC` here?
A: 19.4

Q: And the IC50 (THP-1)?
A: 16 µM

Q: What about the IC50 (Leishmania infantum [4]) of the same molecule?
A: 820 nM

Q: With `CC1CC(CC(C)(O)C(O)COc2ccc3ccc(=O)oc3c2O)OC1=O` (stereo not drawn) as the molecule, how does the IC50 (Leishmania major [5]) read?
A: > 100 µM

Q: With `CC(C)=CCOc1ccc2c(-c3ccccc3)cc(=O)oc2c1` as the molecule, how does the IC50 (Leishmania amazonensis [6]) read?
A: 21.4 µM

Q: What about the IC50 (Leishmania amazonensis [7]) of the same molecule?
A: 58.1 µM

Q: Which results are given for `CCC(C)C(=O)c1c(O)c(CC=C(C)C)c(O)c2c(-c3ccccc3)cc(=O)oc12` (stereo not drawn)?
A: LD50 (Leishmania braziliensis [8]): 22 µg/mL; LC50 (Leishmania braziliensis [8]; Leishmania braziliensis, read-out: LD50 (the source's name)): 29 µg/mL (≈ 71.3 µM); selectivity ratio [9]: 4.4; IC50 (Leishmania amazonensis [10]): 14.3 µM; LD50 (Leishmania braziliensis [11]): 23.2 µg/mL and 60 µg/mL; IC50 (Leishmania amazonensis [12]): 3 µg/mL and 7.4 µM; IC50 (Leishmania amazonensis [13]): 0.88 µg/mL (≈ 2.16 µM)

Q: With `N#C/C(=N\Nc1ccccc1)C1=COC(c2cc3ccccc3oc2=O)=CC1C#N` (stereo not drawn) as the molecule, how does the IC50 (Leishmania donovani [14]) read?
A: 14.2 µM

Q: What about the inhibition at 50 µM (Leishmania donovani [15]) of the same molecule?
A: 92%

Q: With `Cc1cc(=O)oc2cc(OCCCCCOc3cc(Cl)ccc3Oc3ccc(Cl)cc3Cl)ccc12` as the molecule, how does the inhibition at 20 µg/mL (Leishmania panamensis) read?
A: 50%

Q: For `O=c1cc(-c2ccccc2)c2ccc(O[C@@H]3O[C@H](CO)[C@@H](O)[C@H](O)[C@H]3O)cc2o1`, which IC50 (Leishmania amazonensis [6]) is on record?
A: 91.8 µM

Q: Which results are given for `COc1cc(O[C@@H]2O[C@H](COC(C)=O)[C@@H](OC(C)=O)[C@H](OC(C)=O)[C@H]2OC(C)=O)c2c(-c3ccc(OC(C)=O)c(OC(C)=O)c3)cc(=O)oc2c1`?
A: IC50 (Leishmania donovani [14]): > 90 µM; IC50 (Leishmania donovani [2]): 12.4 µM

Q: With `CCCCCCCCCCCCCCCCOP(=O)([O-])OCC[N+](C)(C)C` [MILTEFOSINE] as the molecule, how does the selectivity ratio [3] read?
A: 7

Q: What about the IC50 (Leishmania braziliensis [11]) of the same molecule?
A: 10.4 µM

Q: And the IC50 (THP-1)?
A: 18.5 µM

Q: What about the IC50 (Leishmania infantum [4]) of the same molecule?
A: 2840 nM

Q: What about the IC50 (Leishmania amazonensis [16]) of the same molecule?
A: 9.4 µM

Q: And the IC50 (Leishmania infantum [17])?
A: 7.5 µM

Q: For `COc1cc(O[C@@H]2O[C@H](CO)[C@@H](O)[C@H](O)[C@H]2O)c2c(-c3ccc(OC)c(OC)c3)cc(=O)oc2c1`, which IC50 (Leishmania donovani [14]) is on record?
A: > 90 µM

Q: What about the IC50 (Leishmania donovani [2]) of the same molecule?
A: 10.2 µM

Q: Which IC50 (Leishmania amazonensis [12]) does the source give for `CCC(C)C(=O)c1c(OC)c(CC=C(C)C)c(OC)c2c(-c3ccccc3)cc(=O)oc12` (stereo not drawn) here?
A: 15.1 µM

Q: Which inhibition at 20 µg/mL (Leishmania panamensis) does the source give for `Cc1cc(=O)oc2cc(OCCCOc3cc(Cl)ccc3Oc3ccc(Cl)cc3Cl)ccc12` here?
A: 34%

Q: What does the source list for `N=C(N)c1ccc(OCCCCCOc2ccc(C(=N)N)cc2)cc1` [PENTAMIDINE]?
A: EC50 (Leishmania chagasi): 5.2 µg/mL (≈ 15.3 µM); EC50 (Leishmania donovani [2]): 1.41 µg/mL (≈ 4.14 µM); EC50 (Leishmania mexicana): 1.75 µg/mL (≈ 5.14 µM); EC50 (Leishmania major [1]): 1.46 µg/mL (≈ 4.29 µM)

Q: For `CC1=CC[C@@H]2C(C)(C)[C@H](O)CC[C@@]2(C)[C@@H]1COc1ccc2ccc(=O)oc2c1` [FESELOL], which IC50 (Peritoneal macrophage) is on record?
A: 8 µM

Q: And the IC50 (Leishmania infantum [18])?
A: 6.8 µM

Q: Which inhibition at 50 µM (Leishmania donovani [15]) does the source give for `N#CCC1=NN=C(c2cc3ccccc3oc2=O)C(CC(=O)c2ccccc2)O1` (stereo not drawn) here?
A: 36%

Q: Which inhibition zone (IZ) [19] does the source give for `COc1cc2ccc(=O)oc2cc1OC` [SCOPARONE] here?
A: 8 mm

Q: What about the EC50 (Leishmania chagasi) of the same molecule?
A: 21.4 µg/mL (≈ 104 µM)

Q: And the IC50 (Leishmania braziliensis [11])?
A: > 50 µM

Q: What about the IC50 (Leishmania amazonensis [16]) of the same molecule?
A: > 50 µM

Q: What about the IC50 (Leishmania infantum [17]) of the same molecule?
A: > 50 µM

Q: And the EC50 (Leishmania donovani [2])?
A: 27.5 µg/mL (≈ 133 µM)

Q: What about the EC50 (Leishmania mexicana) of the same molecule?
A: 9.11 µg/mL (≈ 44.2 µM)

Q: And the EC50 (Leishmania major [1])?
A: 14.4 µg/mL (≈ 69.7 µM)

Q: Which Activity (Leishmania amazonensis [20]) does the source give for `C=CC(C)(C)c1cc2cc3c(cc2oc1=O)OC(C)(C)[C@@H](O)C3` here?
A: 95.6%

Q: And the IC50 (Leishmania braziliensis [11])?
A: 32.1 µM

Q: What about the IC50 (Leishmania amazonensis [16]) of the same molecule?
A: 35.8 µM

Q: What about the IC50 (Leishmania infantum [17]) of the same molecule?
A: 27.5 µM

Q: Which results are given for `CCC(C)C(OC)c1c(OC)c(CC=C(C)C)c(OC)c2c(-c3ccccc3)cc(=O)oc12` (stereo not drawn)?
A: IC50 (Leishmania amazonensis [10]): 22.2 µM; IC50 (Leishmania amazonensis [12]): 1.9 µM

Q: Which IC50 (Leishmania major [21]) does the source give for `CC(C)=C1CC[C@H](C)[C@](C)(COc2ccc3ccc(=O)oc3c2)[C@H]1CCC(=O)O` [GALBANIC ACID] here?
A: 165 µM

Q: Which IC50 (Leishmania major [22]) does the source give for `O=c1oc2ccccc2cc1-c1nnc2n1N=C(c1ccc(Cl)cc1)CS2` here?
A: 2860 nM

Q: With `CNC(=O)Oc1ccc2c(c1)[C@]1(C)CCN(C)[C@@H]1N2C` as the molecule, how does the inhibition zone (IZ) [19] read?
A: 9 mm

Q: With `O=c1oc2ccc(/N=C/c3ccco3)cc2cc1-c1ccc2c(c1)OCO2` as the molecule, how does the IC50 (Leishmania major [23]) read?
A: 223 µM

Q: For `C=C1CC(C/C(C)=C/COc2ccc3ccc(=O)oc3c2O)OC1=O` (stereo not drawn) [CLAUSLACTONE E], which IC50 (Leishmania major [5]) is on record?
A: 9.8 µM

Q: For `CN(C)c1ccc(C(c2c(O)c3ccccc3oc2=O)c2c(O)c3ccccc3oc2=O)cc1`, which IC50 (Leishmania donovani [2]) is on record?
A: 150 µg/mL
